Measurements reported in patent publication US11364264B2, “Ex vivo antigen-presenting cells or activated CD-positive T cells for treatment of cancer” (priority 2016, dated 2022).
Where two headings read alike, the source gives them in different places.

Key:
[1] = test system: Luc-40L mesothelioma cancer cells; experiment: Luc-40L mesothelioma model, survival (Example 4); assay type: in vivo, mouse; conditions: VIC-008 20 μg and/or AMD3100 1 μg/g body weight once a week for four weeks
[2] = test system: Luc-AE17 mesothelioma cancer cells; experiment: Luc-AE17 mesothelioma model, survival (Example 4); assay type: in vivo, mouse; conditions: VIC-008 20 μg and/or AMD3100 1 μg/g body weight once a week for four weeks
[3] = test system: 40L mouse mesothelioma cell line; experiment: 40L intraperitoneal malignant mesothelioma model: tumor weight and survival (Example 5); assay type: in vivo; conditions: VIC-008 20 μg per mouse, AMD3100 1 mg/kg i.p. weekly x4
[4] = test system: AE17 mouse mesothelioma cell line; experiment: AE17 intraperitoneal malignant mesothelioma model: tumor weight and survival (Example 5); assay type: in vivo; conditions: VIC-008 20 μg per mouse, AMD3100 1 mg/kg i.p. weekly x4
[5] = test system: 40L mouse mesothelioma cell line; experiment: Immune profiling by flow cytometry of tissues from 40L tumor-bearing mice; assay type: in vivo; conditions: for Proportion of CD8+ T cells in total live cells compared to saline: one week after last treatment
[6] = test system: AE17 mouse mesothelioma cell line; assay type: in vivo; conditions: for Proportion of CD8+ T cells in total live cells compared to saline: one week after last treatment
[7] = test system: 40L mouse mesothelioma cell line; experiment: Ex vivo restimulation with recombinant mesothelin, intracellular IFN-γ in CD8+ T cells, 40L mice; conditions: splenic CD8+ T cells, restimulated with recombinant mesothelin ex vivo
[8] = test system: AE17 mouse mesothelioma cell line; experiment: Ex vivo restimulation with recombinant mesothelin, intracellular IFN-γ in CD8+ T cells, AE17 mice; conditions: restimulated with recombinant mesothelin ex vivo
[9] = test system: GFP-Foxp3 expressing CD4+ splenocytes (Treg cells); conditions: AMD3100 5 μg/ml, 24 hours

c1cc(CN2CCCNCCNCCCNCC2)ccc1CN1CCCNCCNCCCNCC1 [AMD3100]
Survival of tumor-bearing mice compared to saline [1]: slight effect on survival | Survival of tumor-bearing mice compared to saline [2]: slight effect on survival | Animal survival compared to saline [3]: only modest benefit to survival | Animal survival compared to saline [4]: only modest benefit to survival | Proportion of PD-1-expressing CD8+ T cells compared to saline ([5]; spleens): significantly fewer | Proportions of Treg cells ([5]; spleens): did not alter | Proportion of CD8+ T cells in total live cells compared to saline ([5]; spleens): did not increase | IL-2+ CD40L+ cells among the Foxp3+ CD25− Treg population ([5]; tumors): significantly more cells | Proportion of PD-1-expressing CD8+ T cells compared to saline ([5]; tumors): significantly fewer | Proportions of Treg in tumors compared to saline ([5]; tumors): significantly decreased | Ratio of CD8+ T cells to Treg in tumors compared to saline ([5]; tumors): increased | Ratio of CD25− cells to CD25+ cells within the Foxp3+ population ([5]; tumors): significantly increased | Proportion of CD8+ T cells in total live cells compared to saline ([5]; tumors): did not increase | Cell ratio of CD8+ T cells to Treg cells compared to saline ([6]; lymph nodes): significantly increased | IL-2+ CD40L+ cells among the Foxp3+ CD25− Treg population ([6]; lymph nodes): significantly more cells | Proportion of PD-1-expressing CD8+ T cells compared to saline ([6]; lymph nodes): significantly fewer | Ratio of CD25− cells to CD25+ cells within the Foxp3+ population ([6]; lymph nodes): significantly increased | Treg in the lymph nodes ([6]; lymph nodes): generally reduced | Proportion of CD8+ T cells in total live cells compared to saline ([6]; lymph nodes): did not increase | Proportion of PD-1-expressing CD8+ T cells compared to saline ([6]; spleens): significantly fewer | Proportion of CD8+ T cells in total live cells compared to saline ([6]; spleens): did not increase | Proportion of PD-1-expressing CD8+ T cells compared to saline ([6]; tumors): significantly fewer | Proportions of Treg in tumors compared to saline ([6]; tumors): significantly decreased | Ratio of CD8+ T cells to Treg in tumors compared to saline ([6]; tumors): increased | Proportion of CD8+ T cells in total live cells compared to saline ([6]; tumors): did not increase | Mesothelin-specific IFN-γ expression in CD8+ T cells compared to saline [7]: did not enhance | Mesothelin-specific IFN-γ expression in CD8+ T cells compared to saline ([8]; lymph node CD8+ T cells): did not enhance | Mesothelin-specific IFN-γ expression in CD8+ T cells compared to saline ([8]; splenic CD8+ T cells): did not enhance | Ratio of the proportion of CD25− cells to CD25+ cells in the Foxp3+ CD4+ population ([9]; no anti-CD3/CD28 stimulation): did not change | Conversion of Foxp3+ CD25− Treg into IL-2+ CD40L+ cells ([9]; with anti-CD3/CD28 antibodies (1 μg/ml), P=0.0015): converted more | Ratio of the proportion of CD25− cells to CD25+ cells in the Foxp3+ CD4+ population ([9]; with anti-CD3/CD28 antibodies (1 μg/ml), P=0.0017): significantly increased
